Patent publication US20180099931A1 (AbbVie S.à.r.l., priority 2016, published 2018)
Like-named read-outs stand apart in the source and are kept apart here.

Biological target: T1, F508delCFTR (Homo sapiens, UniProt P13569, DEL508-508)
T1 construct: expressed in transfected cells; host or cells: CFBE41o- human lung-derived epithelial cells (CFBE4lo-F508delCFTR-HRP), doxycycline-inducible
Assay: Cell Surface Expression-Horse Radish Peroxidase (CSE-HRP) Assay;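 for Maximum % activity (with co-corrector): co-corrector and positive control are both the same reference corrector at 2 µM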;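 for Maximum % activity (without co-corrector): percent of the 2 µM on-plate positive control corrector response above DMSO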
Assay type: cell-based
Settings: for Maximum % activity (with co-corrector) / Emax: maximum at any tested concentration, normalized to on-plate positive control; for Emax: read-out: Maximum % activity (without co-corrector)

[1] = CSE-HRP, test compound without co-corrector, read-out: EC50 (without co-corrector)
[2] = CSE-HRP, with co-corrector (2 μM of 3-[(2R,4R)-4-({[1-(2,2-difluoro-1,3-benzodioxol-5-yl)cyclopropyl]carbonyl}amino)-7-methoxy-3,4-dihydro-2H-chromen-2-yl]benzoic acid), read-out: EC50 (with co-corrector)
[3] = CSE-HRP, with co-corrector (2 μM)
[4] = test compound without co-corrector
[5] = test compound without co-corrector, read-out: EC50 (without co-corrector)
[6] = with co-corrector (2 μM of 3-[(2R,4R)-4-({[1-(2,2-difluoro-1,3-benzodioxol-5-yl)cyclopropyl]carbonyl}amino)-7-methoxy-3,4-dihydro-2H-chromen-2-yl]benzoic acid)
[7] = with co-corrector (2 μM of 3-[(2R,4R)-4-({[1-(2,2-difluoro-1,3-benzodioxol-5-yl)cyclopropyl]carbonyl}amino)-7-methoxy-3,4-dihydro-2H-chromen-2-yl]benzoic acid), read-out: EC50 (with co-corrector)

T1 sequence (P13569 with tags, fused parts or gaps DEL508-508): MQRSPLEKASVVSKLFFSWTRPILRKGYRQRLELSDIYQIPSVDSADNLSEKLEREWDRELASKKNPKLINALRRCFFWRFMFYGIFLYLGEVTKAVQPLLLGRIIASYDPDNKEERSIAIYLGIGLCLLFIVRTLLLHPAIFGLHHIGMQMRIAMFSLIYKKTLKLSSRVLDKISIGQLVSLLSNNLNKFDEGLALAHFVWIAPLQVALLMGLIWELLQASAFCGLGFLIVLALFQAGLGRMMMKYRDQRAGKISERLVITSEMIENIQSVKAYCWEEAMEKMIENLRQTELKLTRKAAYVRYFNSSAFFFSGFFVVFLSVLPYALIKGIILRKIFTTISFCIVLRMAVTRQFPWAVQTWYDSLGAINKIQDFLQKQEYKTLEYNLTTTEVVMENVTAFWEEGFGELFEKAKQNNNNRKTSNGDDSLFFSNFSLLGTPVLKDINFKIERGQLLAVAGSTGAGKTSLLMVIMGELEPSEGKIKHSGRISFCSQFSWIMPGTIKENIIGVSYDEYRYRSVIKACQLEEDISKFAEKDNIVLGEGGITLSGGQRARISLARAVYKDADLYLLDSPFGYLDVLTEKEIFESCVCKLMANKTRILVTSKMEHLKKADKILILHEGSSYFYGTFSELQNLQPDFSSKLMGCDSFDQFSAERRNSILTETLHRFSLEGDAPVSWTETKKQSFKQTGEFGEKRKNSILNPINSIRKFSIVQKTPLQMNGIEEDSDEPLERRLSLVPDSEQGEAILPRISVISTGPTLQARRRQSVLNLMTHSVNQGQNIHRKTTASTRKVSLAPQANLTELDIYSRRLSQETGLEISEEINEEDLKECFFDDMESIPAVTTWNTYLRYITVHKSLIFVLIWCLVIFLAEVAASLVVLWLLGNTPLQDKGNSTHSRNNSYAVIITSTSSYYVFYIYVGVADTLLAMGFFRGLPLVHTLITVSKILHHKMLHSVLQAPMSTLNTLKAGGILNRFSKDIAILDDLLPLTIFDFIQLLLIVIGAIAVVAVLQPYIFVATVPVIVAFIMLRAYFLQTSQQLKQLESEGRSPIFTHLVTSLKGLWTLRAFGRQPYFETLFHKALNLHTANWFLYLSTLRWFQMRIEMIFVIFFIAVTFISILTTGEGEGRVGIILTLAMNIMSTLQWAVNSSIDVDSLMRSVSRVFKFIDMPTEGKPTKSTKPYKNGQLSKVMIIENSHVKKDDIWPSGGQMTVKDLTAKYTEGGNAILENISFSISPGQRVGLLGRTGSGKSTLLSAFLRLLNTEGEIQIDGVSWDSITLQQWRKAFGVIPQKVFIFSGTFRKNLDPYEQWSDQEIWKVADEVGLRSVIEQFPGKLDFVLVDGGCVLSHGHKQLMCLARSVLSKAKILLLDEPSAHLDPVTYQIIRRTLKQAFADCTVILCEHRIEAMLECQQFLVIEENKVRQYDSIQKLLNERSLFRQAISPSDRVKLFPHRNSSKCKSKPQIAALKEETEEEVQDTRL

Structure (SMILES)	EC50 [1] [nM]	EC50 [2] [nM]	Maximum % activity (with co-corrector) [3]	Emax (CSE-HRP, without co-corrector) [%]	Emax [4] [%]	EC50 [5] [nM]	Maximum % activity (with co-corrector) [6]	EC50 [7] [nM]	Maximum % activity (with co-corrector) (with co-corrector (2 μM))	Emax (without co-corrector) [%]
COc1ccc(C(C)(C)C)cc1CN[C@H]1[C@H](C(C)(C)C)[C@@H](C(=O)O)N(S(=O)(=O)c2ccn(C)n2)[C@H]1c1ccccc1 [II-154]	1000 to 10000	1000 to 10000	+++ (≥350)	100 to 200	–	–	–	–	–	–
COc1cc(C(F)(F)F)ccc1CN[C@H]1[C@H](C(C)(C)C)[C@@H](C(=O)O)N(C(=O)[C@H]2CCCCO2)[C@H]1c1ccccc1 [II-81]	1000 to 10000	1000 to 10000	+++ (≥350)	100 to 200	–	–	–	–	–	–
COc1ccc(C(F)(F)F)cc1CN[C@H]1[C@H](C(C)(C)C)[C@@H](C(=O)O)N(C(=O)OC(C)C)[C@H]1c1cccc(Cl)c1 [Example I-252]	1000 to 10000	1000 to 10000	+++ (≥350)	> 200	–	–	–	–	–	–
CCOc1cc2c(cc1CN[C@H]1[C@H](C(C)(C)C)[C@@H](C(=O)O)N(C(=O)C3CCCCC3)[C@H]1c1ccccc1)CCC2 [II-129]	1000 to 10000	1000 to 10000	+++ (≥350)	100 to 200	–	–	–	–	–	–
COc1ccc(C(F)(F)F)cc1CN[C@@H]1[C@@H](C(C)(C)C)[C@H](C(=O)O)N(C(=O)C2COCCO2)[C@@H]1c1ccccc1 (mixture of isomers) [II-85]	1000 to 10000	1000 to 10000	++ (≥150 and <350)	< 100	–	–	–	–	–	–
COc1ccc(C2(C)CCC2)cc1CN[C@H]1[C@H](C(C)(C)C)[C@@H](C(=O)O)N(C(=O)[C@@H]2CCCCO2)[C@H]1c1cccnc1N(C)C [Example 60, (2S,3S,4S,5S)-3-tert-butyl-5-[2-(dimethylamino)pyridin-3-yl]-4-({[2-methoxy-5-(1-methylcyclobutyl)phenyl]methyl}amino)-1-[(2S)-oxane-2-carbonyl]pyrrolidine-2-carboxylic acid]	–	–	–	–	–	1000 to 10000	–	1000 to 10000	+++ (≥350)	> 200
COc1ccc(C(F)(F)F)cc1CN[C@H]1[C@H](C(C)(C)C)[C@@H](C(=O)O)N(C(=O)OC(C)C)[C@H]1c1ccccc1 [II-553]	–	–	–	–	> 200	1000 to 10000	+++ (≥350)	1000 to 10000	–	–
COc1ccc(C(C)(C)C)cc1CN[C@H]1[C@H](C(C)(C)C)[C@@H](C(=O)O)N(C(=O)[C@H]2C[C@@H]3CC[C@H]2O3)[C@H]1c1ccccc1 [II-543]	–	–	–	–	> 200	1000 to 10000	+++ (≥350)	1000 to 10000	–	–
CC(C)(C)[C@H]1[C@H](NCC2(c3ccc4c(c3)OC(F)(F)O4)CC2)[C@H](c2ccccc2)N(C(=O)C2CCCCC2)[C@@H]1C(=O)O [II-499]	–	–	–	–	100 to 200	1000 to 10000	+++ (≥350)	1000 to 10000	–	–
COc1ccc(C(C)(C)C)cc1CN[C@@H]1[C@@H](C(C)(C)C)[C@H](C(=O)NS(C)(=O)=O)N(C(=O)C2CCCCC2)[C@@H]1c1ccccc1 [Example I-203]	–	–	–	–	–	1000 to 10000	–	1000 to 10000	++ (≥150 and <350)	< 100
COc1cc(C(C)(C)O)ccc1CN[C@H]1[C@H](C(C)(C)C)[C@@H](C(=O)O)N(C(=O)C2CCCCC2)[C@H]1c1ccccc1 [Example I-89]	–	–	–	–	–	> 10000	–	> 10000	+ (<150)	< 100

Results, then the compound that gave them:

EC50 [1] [nM]	EC50 [2] [nM]	Maximum % activity (with co-corrector) [3]	Emax (CSE-HRP, without co-corrector) [%]	Emax [4] [%]	EC50 [5] [nM]	Maximum % activity (with co-corrector) [6]	EC50 [7] [nM]	Maximum % activity (with co-corrector) (with co-corrector (2 μM))	Emax (without co-corrector) [%]	Structure (SMILES)
–	–	–	–	< 100	1000 to 10000	+++ (≥350)	1000 to 10000	–	–	COc1ccc(C(C)(C)C)cc1CN[C@H]1[C@H](C(C)(C)C)[C@@H](C(=O)O)N(C(=O)C2Cc3ccccc3CO2)[C@H]1c1cccnc1N(C)C (single isomer, unassigned) [II-480]
–	–	–	–	–	< 1000	–	< 1000	+++ (≥350)	100 to 200	COc1ccc(S(F)(F)(F)(F)F)cc1CN[C@H]1[C@H](C(C)(C)C)[C@@H](C(=O)O)N(C(=O)C2CCCCC2)[C@H]1c1ccccc1 [Example I-86]
–	–	–	–	–	1000 to 10000	–	< 1000	+++ (≥350)	> 200	COc1ccc(C2(C(F)(F)F)CC2)cc1CN[C@H]1[C@H](C(C)(C)C)[C@@H](C(=O)O)N(C(=O)C2CCCCC2)[C@H]1c1ccccc1 [Example 33, (2S,3S,4S,5S)-3-tert-butyl-1-(cyclohexanecarbonyl)-4-[({2-methoxy-5-[1-(trifluoromethyl)cyclopropyl]phenyl}methyl)amino]-5-phenylpyrrolidine-2-carboxylic acid]
–	–	–	–	100 to 200	1000 to 10000	+++ (≥350)	< 1000	–	–	COc1cc(C(F)(F)F)ccc1CN[C@@H]1[C@@H](C(C)(C)C)[C@H](C(=O)O)N(C(=O)C2CCCCC2)[C@@H]1c1ccccc1 (racemic) [III-35]
–	–	–	–	> 200	< 1000	+++ (≥350)	< 1000	–	–	COc1ccc(C(C)(C)C)cc1CN[C@H]1[C@H](C(C)(C)C)[C@@H](C(=O)O)N(C(=O)c2ccc(Oc3ccccn3)cc2)[C@H]1c1cccnc1N(C)C [II-466]
–	–	–	–	–	1000 to 10000	–	1000 to 10000	++ (≥150 and <350)	< 100	COc1cnc(N2CCCC2)cc1CN[C@H]1[C@H](C(C)(C)C)[C@@H](C(=O)O)N(C(=O)C2CCCCC2)[C@H]1c1ccccc1 [Example I-212]
–	–	–	–	100 to 200	1000 to 10000	–	< 1000	+++ (≥350)	–	COc1ncc(C2CCC2)cc1CN[C@H]1[C@H](C(C)(C)C)[C@@H](C(=O)O)N(C(=O)C2CC(C)CC(C)C2)[C@H]1c1ccccc1 (stereo partly drawn) [III-207]
–	–	–	–	100 to 200	< 1000	+++ (≥350)	< 1000	–	–	COc1cnc(-c2ccc(C)cc2F)cc1CN[C@H]1[C@H](C(C)(C)C)[C@@H](C(=O)O)N(C(=O)C2CCCCC2)[C@H]1c1ccccc1 [II-416]
–	–	–	–	–	1000 to 10000	–	1000 to 10000	+++ (≥350)	< 100	CO[C@@H]1CCC[C@@H](C(=O)N2[C@H](c3ccccc3)[C@H](Nc3cc(C(F)(F)F)cc(C)n3)[C@@H](C(C)(C)C)[C@@H]2C(=O)O)C1 (racemic) [Example I-31]
–	–	–	–	–	1000 to 10000	–	1000 to 10000	+++ (≥350)	100 to 200	COc1nc(C(C)(C)C)ccc1CN[C@H]1[C@H](C(C)(C)C)[C@@H](C(=O)O)N(C(=O)[C@@H]2CCCCO2)[C@H]1c1ccccc1F [Example I-231]
–	–	–	–	–	1000 to 10000	–	1000 to 10000	+++ (≥350)	> 200	COc1ncc(C2CCC2)cc1CN[C@H]1[C@H](C(C)(C)C)[C@@H](C(=O)O)N(C(=O)C2CCCCC2)[C@H]1c1cccnc1N(C)C [Example I-131]
–	–	–	–	> 200	< 1000	+++ (≥350)	< 1000	–	–	COc1ncc(-c2ccccc2C)cc1CN[C@H]1[C@H](C(C)(C)C)[C@@H](C(=O)O)N(C(=O)C2CCCCC2)[C@H]1c1ccccc1 [II-342]
–	–	–	–	–	< 1000	–	< 1000	+++ (≥350)	> 200	COc1nc(C(C)(C)C)ccc1CN[C@H]1[C@H](C(C)(C)C)[C@@H](C(=O)O)N(C(=O)C2CCCCO2)[C@H]1c1ccccc1C(C)C (stereo partly drawn) [Example I-177]
